Assay results: patent publication US10167346B2, “Compositions and methods for making alpha-(1,2)-branched alpha-(1,6) oligodextrans” (TATE & LYLE INGREDIENTS FRANCE SAS, priority 2009, dated 2019)

Test system: Caenorhabditis elegans
Assay: lipid content in the in vivo model Caenorhabditis elegans
Settings: positive control, concentration not given
Protocol: Oligodextrans according to the present invention were evaluated for their effect on lipid content using the in vivo model Caenorhabditis elegans. The substrates evaluated were TLD-1000 (unbranched 1 kDa dextran) and TLD-1030 (1 kDa dextran+32% α-1,2). […] A negative control (DMSO) and positive control (Orlistat) were also included. Each substrate was assayed four times with a total of 120 worms per substrate and concentration.

CCCCCCCCCCC[C@@H](C[C@@H]1OC(=O)[C@H]1CCCCCC)OC(=O)[C@H](CC(C)C)NC=O [Orlistat]
reduction in lipid content: > 40%
